Results as given in patent US11976062B2, “Benzisoxazole compound” (OSAKA UNIVERSITY, priority 2018, dated 2024).

What was measured:
TRPC6 channel [1] = biological target: T1, TRPC6 channel (Homo sapiens, UniProt Q9Y210); assay: Calcium assay using HEK293 cells transiently expressing TRPC6 channel, carbachol activation (Fura-2); assay type: cell-based; details: 10 μM test compound, carbachol; for amount of increase in calcium ions relative to control (DMSO) taken as 100%: TRPC6-expressing cells
T1 construct: expressed in transfected cells; host or cells: HEK293
T1 sequence (Q9Y210 1-931): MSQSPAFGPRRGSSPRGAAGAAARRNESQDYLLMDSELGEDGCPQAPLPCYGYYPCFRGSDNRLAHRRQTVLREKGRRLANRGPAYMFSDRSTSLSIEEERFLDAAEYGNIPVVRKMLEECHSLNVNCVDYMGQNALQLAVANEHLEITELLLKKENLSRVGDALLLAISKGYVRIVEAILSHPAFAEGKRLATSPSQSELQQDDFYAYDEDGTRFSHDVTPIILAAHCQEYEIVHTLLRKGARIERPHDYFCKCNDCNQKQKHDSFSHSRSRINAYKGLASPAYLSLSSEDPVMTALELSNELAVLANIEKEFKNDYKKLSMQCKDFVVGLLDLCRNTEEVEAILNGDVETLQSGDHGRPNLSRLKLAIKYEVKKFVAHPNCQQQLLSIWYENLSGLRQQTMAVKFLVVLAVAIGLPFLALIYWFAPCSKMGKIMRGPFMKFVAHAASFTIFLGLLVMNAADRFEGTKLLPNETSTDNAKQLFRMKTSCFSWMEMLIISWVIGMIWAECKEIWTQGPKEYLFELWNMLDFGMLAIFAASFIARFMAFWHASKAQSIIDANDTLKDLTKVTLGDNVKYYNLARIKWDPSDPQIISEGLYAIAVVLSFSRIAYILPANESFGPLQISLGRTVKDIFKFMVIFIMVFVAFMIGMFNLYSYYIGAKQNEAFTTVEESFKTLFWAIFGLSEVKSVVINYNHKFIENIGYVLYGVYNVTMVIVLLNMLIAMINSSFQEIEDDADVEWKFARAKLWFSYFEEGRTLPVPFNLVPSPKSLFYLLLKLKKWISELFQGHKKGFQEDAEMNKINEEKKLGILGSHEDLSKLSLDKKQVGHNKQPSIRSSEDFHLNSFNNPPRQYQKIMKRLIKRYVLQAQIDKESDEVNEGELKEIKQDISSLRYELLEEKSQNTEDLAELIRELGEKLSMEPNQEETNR
Procedure: A TRPC6 gene was introduced into HEK293 cells (cells derived from human fetal kidney) by lipofection, and the TRPC6 channel was expressed on the cell membrane. Specifically, the plasmid DNA of TRPC6 (pCI-neo; Promega Corporation) was introduced into HEK293 cells using a lipofection reagent, and then cultured at 37° C. for 24 to 48 hours to express the TRPC6 channel on the cell membrane. In the same manner, HEK293 cells into which the TRPC3 gene was introduced were cultured, and the TRPC3 channel was expressed on the cell membrane.
The cultured cells were peeled off with trypsin and seeded on a cover glass again, followed by culturing the cells at 37° C. for 3 hours again. A Fura-2 AM calcium indicator was added to the medium, and the cells were cultured at 37° C. for 30 minutes to allow the cells to incorporate the indicator. For the extracellular solution, a Ca^2+-containing solution and a Ca^2+-free solution were prepared. • Ca^2+-containing solution: 2 mM CaCl2, 132 mM NaCl, 4 mM KCl, 1 mM MgCl2, 5 mM glucose, 5 mM HEPES (pH 7.4) • Ca^2+-free solution: 132 mM NaCl, 4 mM KCl, 1 mM MgCl2, 5 mM glucose, 5 mM HEPES (pH 7.4)
After the cells were added to the Ca^2+-containing solution, the following operation was performed while the fluorescence intensity (510 nm) of Fura-2 was measured at room temperature with an ARGUS CA-20 (Hamamatsu Photonics K.K.) over time. • 0 minutes: TRPC3-expressing cells or TRPC6-expressing cells are placed in a measurement chamber that contains the Ca^2+-containing solution. • After 30 seconds: The Ca^2+-containing solution is replaced with the Ca^2+-free solution. • After 1 minute: A predetermined amount of a test compound is added to the Ca^2+-free solution. • After 3 minutes: Carbachol (100 μM) is added to the Ca^2+-free solution. • After 7 minutes: The Ca^2+-free solution is replaced with the Ca^2+-containing solution that contains a test compound and carbachol […]. • After 15 minutes: Measurement is ended.
Compound 011 was used as the test compound, and the amount of the test compound added was 0.01, 0.1, 0.5, 1.0, 5.0, 10, or 50 μM. For the control, 0.1% DMSO was used in place of the test compound. Carbachol (cch) is a TRPC-channel-activating reagent. Applying carbachol to cells opens the TRPC channel and allows a large amount of Ca^2+ in the extracellular solution to flow into the cells. Fura-2 AM has high cell membrane permeability due to the presence of an AM group (acetoxymethyl group), and is thus easily incorporated into the cells. The AM group is hydrolyzed in the cells to become Fura-2. Thus, Fura-2 can form a chelate with Ca^2+ and is also unlikely to leak out of the cells due to the loss of the AM group.
In the same manner as in Test Example 1, the maximum calcium ion concentration was measured after 7 minutes from the start of measurement (i.e., after replacement with the Ca^2+-containing solution) by using TRPC6-expressing cells prepared in the same manner as in Test Example 1, except that 10 μM of Pyr 4 and 10 μM of compound 011, 031, 041, or 191 (test compound) were used. The average value of calcium ion concentrations up to 30 seconds after the start of measurement (the initial value of calcium ion concentration) was subtracted from the maximum calcium ion concentration, and the calculated value was determined to be the amount of increase in calcium ions. FIG. 3 illustrates the results.
The calcium ion concentration was measured in the same manner as in Test Example 2, except that 10 μM of compound 011, 361, 362(E), 362(Z), 371, 372(Z), 381, or 401 (test compound) was used, and Pyr 4 was not used, thereby determining the amount of increase in calcium ions. Table 2 illustrates the amount of increase in calcium ions for each test compound relative to the amount of increase in calcium ions in the control (DMSO) taken as 100%.

[2] = test system: cardiac fibrosis induced by pressure overload; details: mice, NPL 1 and 2; cited from earlier work
TRPC6 channel [3] = biological target: T1, TRPC6 channel; assay: Calcium assay using HEK293 cells transiently expressing TRPC6 channel, ATP as activating reagent; assay type: cell-based; details: 10 μM test compound
Procedure: In the same manner as in Test Example 2, the calcium ion concentration was measured, except that 10 μM of Pyr 4 and 10 μM of compound 202(E), 061, or 071 (test compound) were used, and ATP was used as a TRPC channel activating reagent instead of carbachol, thereby determining the amount of increase in calcium ions. FIG. 4 illustrates the results.

Structure (SMILES)	amount of increase in calcium ions relative to control (DMSO) taken as 100% (TRPC6 channel [1]) [%]	other results
O/N=C(/c1c(F)cccc1C(F)(F)F)N1CC=C(c2ccccc2Cl)CC1 [Compound 362(Z), (Z)-(4-(2-chlorophenyl)-3,6-dihydropyridin-1(2H)-yl)(2-fluoro-6-(trifluoromethyl)phenyl)methanone oxime]	54	–
O=C(O)c1cnc(N2CC3CCC(C2)N3c2noc3cccc(C(F)(F)F)c23)c(Cl)c1 [Compound 191, 5-chloro-6-(8-(4-(trifluoromethyl)benzo[d]isoxazol-3-yl)-3,8-diazabicyclo[3,2,1]octan-3-yl)nicotinic acid]	–	suppression of TRPC6 channel activation (decrease in calcium ion influx, FIG. 3) (TRPC6 channel [1]): activation of the TRPC6 channel was suppressed
CCOC(=O)c1cnn(-c2ccc(NC(=O)C(Cl)=C(Cl)Cl)cc2)c1C(F)(F)F [Pyr3]	–	suppression of cardiac fibrosis induced by pressure overload [2]: potently suppresses cardiac fibrosis induced by pressure overload
O=C(O)c1cnc(N2CCN(c3noc4cccc(C(F)(F)F)c34)CC2=O)c(Cl)c1 [Compound 381, 5-chloro-6-(2-oxo-4-(4-(trifluoromethyl)benzo[d]isoxazol-3-yl)piperazin-1-yl)nicotinic acid]	57	–
O=C(O)c1ccc(C2=CCN(c3noc4cccc(C(F)(F)F)c34)CC2)c(Cl)c1 [Compound 401, 3-chloro-4-(1-(4-(trifluoromethyl)benzo[d]isoxazol-3-yl)-1,2,3,6-tetrahydropyridin-4-yl)benzoic acid]	19	–
C[C@@H]1CN(c2ncc(C(=O)O)cc2Cl)CCN1c1noc2cccc(C(F)(F)F)c12 [Compound 041, (R)-5-chloro-6-(3-methyl-4-(4-(trifluoromethyl)benzo[d]isoxazol-3-yl)piperazin-1-yl) nicotinic acid]	–	suppression of TRPC6 channel activation (decrease in calcium ion influx, FIG. 3) (TRPC6 channel [1]): activation of the TRPC6 channel was suppressed
FC(F)(F)c1cccc2onc(N3CC=C(c4ccccc4Cl)CC3)c12 [Compound 361, 3-(4-(2-chlorophenyl)-3,6-dihydropyridin-1(2H)-yl)-4-(trifluoromethyl)benzo[d]isoxazole]	72	–
O/N=C(\c1c(F)cccc1C(F)(F)F)N1CC=C(c2ccccc2Cl)CC1 [Compound 362(E), E-(4-(2-chlorophenyl)-3,6-dihydropyridin-1(2H)-yl)(2-fluoro-6-(trifluoromethyl)phenyl)methanone oxime]	65	–
CCOC(=O)c1cnc(N2CCN(c3noc4cccc(C(F)(F)F)c34)CC2=O)c(Cl)c1 [Compound 371, ethyl 5-chloro-6-(2-oxo-4-(4-(trifluoromethyl)benzo[d]isoxazol-3-yl)piperazin-1-yl) nicotinate]	61	–
O/N=C(\c1cccc(Cl)c1Cl)N1CCN(c2ccccc2Cl)CC1 [Compound 202(E), (E)-(4-(2-chlorophenyl)piperazin-1-yl)(2,3-dichlorophenyl)methanone oxime]	–	suppression of TRPC6 channel activation (decrease in calcium ion influx, FIG. 4) (TRPC6 channel [3]): activation of the TRPC6 channel was suppressed
CCOC(=O)c1cnc(N2CCN(/C(=N\O)c3c(F)cccc3C(F)(F)F)CC2=O)c(Cl)c1 [Compound 372(Z), ethyl (Z)-5-chloro-6-(4-((2-fluoro-6-(trifluoromethyl)phenyl)(hydroxyimino)methyl)-2-oxopiperazin-1-yl)nicotinate]	72	–
Clc1ccccc1N1CCN(c2noc3cccc(Cl)c23)CC1 [Compound 061, 4-chloro-3-(4-(2-chlorophenyl)piperazin-1-yl)benzo[d]isoxazole]	–	suppression of TRPC6 channel activation (decrease in calcium ion influx, FIG. 4) (TRPC6 channel [3]): activation of the TRPC6 channel was suppressed
C[C@H]1CN(c2ncc(C(=O)O)cc2Cl)CCN1c1noc2cccc(C(F)(F)F)c12 [Compound 031, (S)-5-chloro-6-(3-methyl-4-(4-(trifluoromethyl)benzo[d]isoxazol-3-yl)piperazin-1-yl) nicotinic acid]	–	suppression of TRPC6 channel activation (decrease in calcium ion influx, FIG. 3) (TRPC6 channel [1]): activation of the TRPC6 channel was suppressed
Clc1cccnc1N1CCN(c2noc3cccc(Cl)c23)CC1 [Compound 071, 4-chloro-3-(4-(3-chloropyridin-2-yl)piperazin-1-yl)benzo[d]isoxazole]	–	suppression of TRPC6 channel activation (decrease in calcium ion influx, FIG. 4) (TRPC6 channel [3]): activation of the TRPC6 channel was suppressed
